Reference: PubChem BioAssay AID1963976 (Molecular Pharmacology Branch, DTP, NCI, 2024)
Values joined by “and” are separate entries in the source; they are usually repeats but may differ in a detail not shown here. Equal entries are not always repeated.

Tested on: 435261-313-R-J1-PDC tumor spheroid viability
Assay: Anticancer human tumor 435261-313-R-J1-PDC patient-derived colon adenocarcinoma cell line growth inhibition [PI3K]
Conditions: spheroids with HUVEC and MSC; for viability, T/C: stronger effect = lower value
Procedure, shortened: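 Three cell types, namely tumor cells, endothelial cells and mesenchymal stem cells, formed each spheroid. Combinations with four PI3K inhibitors were screened at clinically achievable concentrations decreasing by half-log, and spheroid viability was recorded.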

[1] = curve of first compound, second compound 0.0316 µM
[2] = curve of first compound, second compound 0.1 µM
[3] = curve of first compound, second compound 0.316 µM
[4] = curve of first compound, second compound 1 µM
[5] = second compound 0.0316 µM, first compound 0.0316 µM
[6] = second compound 0.0316 µM, first compound 0.1 µM
[7] = second compound 0.0316 µM, first compound 0.316 µM
[8] = second compound 0.0316 µM, first compound 1 µM
[9] = second compound 0.1 µM, first compound 0.0316 µM
[10] = second compound 0.1 µM, first compound 0.1 µM
[11] = second compound 0.1 µM, first compound 0.316 µM
[12] = second compound 0.1 µM, first compound 1 µM
[13] = second compound 0.316 µM, first compound 0.0316 µM
[14] = second compound 0.316 µM, first compound 0.1 µM
[15] = second compound 0.316 µM, first compound 0.316 µM
[16] = second compound 0.316 µM, first compound 1 µM
[17] = second compound 1 µM, first compound 0.0316 µM
[18] = second compound 1 µM, first compound 0.1 µM
[19] = second compound 1 µM, first compound 0.316 µM
[20] = second compound 1 µM, first compound 1 µM
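Note: spheroids exposed to compounds for 7 days.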

For `CC1(C)CCC(CN2CCN(c3ccc(C(=O)NS(=O)(=O)c4ccc(NCC5CCOCC5)c([N+](=O)[O-])c4)c(Oc4cnc5[nH]ccc5c4)c3)CC2)=C(c2ccc(Cl)cc2)C1` + CC(Nc1ncnc2nc[nH]c12)c1cc2cccc(Cl)c2c(=O)n1-c1ccccc1, the IC50 [1] was over 10000 nM, the IC50 [2] was over 10000 nM and the IC50 [3] was over 10000 nM. For the same compound, the IC50 [4] was over 10000 nM, the IC50 (curve of first compound, second compound 3.16 µM) was over 10000 nM and the IC50 (curve of first compound, second compound 10 µM) was under 31.6 nM. The viability, T/C [5] was 79.5%, the viability, T/C [6] was 92% and the viability, T/C [7] was 71.5%. For the same compound, the viability, T/C [8] was 80%, the viability, T/C (second compound 0.0316 µM, first compound 3.16 µM) was 86.9% and the viability, T/C (second compound 0.0316 µM, first compound 10 µM) was 95%. For the same compound, the viability, T/C [9] was 66.1%, the viability, T/C [10] was 78.2% and the viability, T/C [11] was 81.3%. The viability, T/C [12] was 71.6%, the viability, T/C (second compound 0.1 µM, first compound 3.16 µM) was 94.5% and the viability, T/C (second compound 0.1 µM, first compound 10 µM) was 84.9%. For the same compound, the viability, T/C [13] was 77.5%, the viability, T/C [14] was 100% and the viability, T/C [15] was 87.2%. It also gave a viability, T/C [16] of 77.3%, a viability, T/C (second compound 0.316 µM, first compound 3.16 µM) of 77.4% and a viability, T/C (second compound 0.316 µM, first compound 10 µM) of 52.2%. It also gave a viability, T/C [17] of 87.6%, a viability, T/C [18] of 66.1% and a viability, T/C [19] of 66.4%. For the same compound, the viability, T/C [20] was 64%, the viability, T/C (second compound 1 µM, first compound 3.16 µM) was 73.2% and the viability, T/C (second compound 1 µM, first compound 10 µM) was 46.6%. It also gave a viability, T/C (second compound 3.16 µM, first compound 0.0316 µM) of 65.3%, a viability, T/C (second compound 3.16 µM, first compound 0.1 µM) of 72.6% and a viability, T/C (second compound 3.16 µM, first compound 0.316 µM) of 87.2%. For the same compound, the viability, T/C (second compound 3.16 µM, first compound 1 µM) was 72.3%, the viability, T/C (second compound 3.16 µM, first compound 3.16 µM) was 77% and the viability, T/C (second compound 3.16 µM, first compound 10 µM) was 76.7%. For the same compound, the viability, T/C (second compound 10 µM, first compound 0.0316 µM) was 41.6%, the viability, T/C (second compound 10 µM, first compound 0.1 µM) was 60.8% and the viability, T/C (second compound 10 µM, first compound 0.316 µM) was 32.7%. For the same compound, the viability, T/C (second compound 10 µM, first compound 1 µM) was 62.9%, the viability, T/C (second compound 10 µM, first compound 3.16 µM) was 50.3% and the viability, T/C (second compound 10 µM, first compound 10 µM) was 43.9%.

Work on `CCN1CCN(Cc2ccc(Nc3ncc(F)c(-c4cc(F)c5nc(C)n(C(C)C)c5c4)n3)nc2)CC1` + CC(Nc1ccc2c(c1)OCCn1cc(N3C(=O)OCC3C(F)F)nc1-2)C(N)=O yielded an IC50 (curve of first compound, second compound 0.00316 µM) of 124 nM, an IC50 (curve of first compound, second compound 0.01 µM) of 30.8 nM and an IC50 [1] of 20.6 nM. It also gave an IC50 [2] of under 3.16 nM, an IC50 [3] of under 3.16 nM and an IC50 [4] of under 3.16 nM. It also gave a viability, T/C (second compound 0.00316 µM, first compound 0.00316 µM) of 94%, a viability, T/C (second compound 0.00316 µM, first compound 0.01 µM) of 71.5% and a viability, T/C (second compound 0.00316 µM, first compound 0.0316 µM) of 53.1%. For the same compound, the viability, T/C (second compound 0.00316 µM, first compound 0.1 µM) was 66.9%, the viability, T/C (second compound 0.00316 µM, first compound 0.316 µM) was 37% and the viability, T/C (second compound 0.00316 µM, first compound 1 µM) was 33.9%. The viability, T/C (second compound 0.01 µM, first compound 0.00316 µM) was 71.5%, the viability, T/C (second compound 0.01 µM, first compound 0.01 µM) was 103% and the viability, T/C (second compound 0.01 µM, first compound 0.0316 µM) was 49.1%. It also gave a viability, T/C (second compound 0.01 µM, first compound 0.1 µM) of 46.4%, a viability, T/C (second compound 0.01 µM, first compound 0.316 µM) of 33.8% and a viability, T/C (second compound 0.01 µM, first compound 1 µM) of 33.8%. For the same compound, the viability, T/C (second compound 0.0316 µM, first compound 0.00316 µM) was 73.6%, the viability, T/C (second compound 0.0316 µM, first compound 0.01 µM) was 58.5% and the viability, T/C [5] was 47.3%. The viability, T/C [6] was 29.1%, the viability, T/C [7] was 28.3% and the viability, T/C [8] was 30.5%. For the same compound, the viability, T/C (second compound 0.1 µM, first compound 0.00316 µM) was 37.7%, the viability, T/C (second compound 0.1 µM, first compound 0.01 µM) was 20.3% and the viability, T/C [9] was 25.9%. It also gave a viability, T/C [10] of 21.1%, a viability, T/C [11] of 19.8% and a viability, T/C [12] of 25.3%. For the same compound, the viability, T/C (second compound 0.316 µM, first compound 0.00316 µM) was 17.9%, the viability, T/C (second compound 0.316 µM, first compound 0.01 µM) was 20.8% and the viability, T/C [13] was 16.7%. The viability, T/C [14] was 16.8%, the viability, T/C [15] was 17.2% and the viability, T/C [16] was 16%. It also gave a viability, T/C (second compound 1 µM, first compound 0.00316 µM) of 17.1%, a viability, T/C (second compound 1 µM, first compound 0.01 µM) of 15.3% and a viability, T/C [17] of 14%. The viability, T/C [18] was 15.2%, the viability, T/C [19] was 15.1% and the viability, T/C [20] was 13.4%.

`CCCS(=O)(=O)Nc1ccc(F)c(C(=O)c2c[nH]c3ncc(-c4ccc(Cl)cc4)cc23)c1F` was tested, and the viability, T/C (compound 0.0316 µM) was 77% and 97.8%, the viability, T/C (compound 0.1 µM) was 91% and 84.7% and the viability, T/C (compound 0.316 µM) was 110% and 111%. The viability, T/C (compound 1 µM) was 120% and 96.2%, the viability, T/C (compound 3.16 µM) was 88.7% and 98.1% and the viability, T/C (compound 10 µM) was 5.61% and 4.11%. The IC50 (curve of compound) was 5400 nM and 5680 nM.
